Bounds are passed on as bounds.

One series deals with MCII cells. In words: MCII MAST CELL TOXICITY ASSAY (XTT). It counts as cell-based, mouse. Conditions: XTT formazan, 37° C. 4-12 hours; read-out: MCII Mast Cell Toxicity IC50. From the text:
MCII MAST CELL TOXICITY ASSAY
This toxicity assay is run in parallel with the MCII mast cell LTC4 assay and serves as an indicator of compound effects on the viability and metabolic activity of the MCII cells. This "toxicity" assay is based on the ability of dehydrogenase enzymes present in viable metabolically active cells to bioreduce the tetrazolium salt XTT yielding a colored, water soluble formazan product. (see, Roehm et al.) An improved colorimetric assay for cell proliferation and viability utilizing the tetrazolium salt XTT. J. Immunol. Methods 142:257-65 (1991).
A duplicate polystyrene 96-well tissue culture plate (Costar) is set up with sensitized MCII cells, EM95 ascites, media and dilutions of the test compound as described above. The complete media is supplemented with concanavalin A induced culture supernatants from the mouse helper T cell clone D10.G4, as a source of mast cell growth factors.
Wells of the toxicity assay Elate are pulsed with 25 μl XTT (Sigma) plus phenazine methosulfate (Aldrich) giving a final concentration of 0.2 mg/ml XTT and 25 μM phenazine methosulfate. The plates are incubated at 37° C. in 10% CO2 for 4-12 hours and then production of the XTT formazan product determined by measuring the optical density of the wells at a wavelength of 450 nm. The positive control on each plate is stimulated MCII cells with dimethyl sulfoxide vehicle alone and the negative control is the same reaction mixture without cells. The background negative control value is subtracted from experimental and positive control values and the data are reported as percent of positive control.
(In general: Tetrazolium assays rely on reduction of a dye to a coloured formazan, in cell work by metabolically active cells.)

Series [1] relates to production of thromboxane B2 (T×B2) in plasma-depleted blood. Description: Inhibition of Eicosanoid Production by Plasma-depleted Blood: TxB2. The format is cell-based. The settings on record: Homo sapiens, read-out: Plasma DPLTD Blood TxB2 IC50. As for the experimental part: Inhibition of Eicosanoid Production by Plasma-depleted Blood.
Compounds are evaluated for their ability to inhibit production of leukotriene B4 (LTB4) and thromboxane B2 (T×B2) upon stimulation of human plasma-depleted blood with formyl-methionyl-leucyl-phenylalanine (FMLP) and thrombin. LTB4 is produced by neutrophils and T×B2 by platelets stimulated at their respective receptors with FMLP and thrombin. The assay is carried out in 1 ml deep well polypropylene 96-well plates (Beckman). For the test, ten ml of blood is collected in EDTA at a final concentration of 1.5 mg/ml. Then, 40 ml glucose phosphate buffer containing 0.1% gelatin is added and the suspension centrifuged at 900 g for 10 minutes at room temperature. The supernatant is discarded and the cells washed once with 50 ml buffer before resuspending them in 50 ml Krebs-Ringers-Henseleit Buffer containing 0.1% gelatin, 1 mM […], 1.1 mM MgCl2 (KRH buffer). Working solutions of test compounds are made by dissolving the material in DMSO at 10 mM and diluting with appropriate amounts of KRH buffer. An agonist solution is made containing 1 μM FMLP (sigma) and 10 units/ml of thrombin in KRH buffer (Enzyme Research Labs). […] The amount of LTB4 and T×B2 produced is determined by the use of a competetive enzyme immunoassay using commercial reagents from Cayman Chemical.

As to `O=C(c1ccccc1)c1c(-c2ccc(O)cc2)sc2cc(O)ccc12` [Compound A], the CC50 with MCII cells was 0.3 µM.
With `Oc1ccc(-c2cc3ccc(O)cc3s2)cc1` [Compound B], the CC50 with MCII cells was under 10 µM.
The term IC50 denotes the concentration that gives 50% inhibition. Turning to `O=C(c1ccc(O)cc1)c1c(-c2ccc(O)cc2)sc2cc(O)ccc12` [Compound D], the 50% inhibitory concentration (IC50) in series [1] is over 9.8 µM.
As for `O=C(c1ccc(-c2ccccc2)cc1)c1c(-c2ccc(O)cc2)sc2cc(O)ccc12` [Example 1, 6-hydroxyphenyl-2-(p-hydroxyphenyl)-(benzo(B)thien-3-yl)(p-phenyl)phenyl methanone], the CC50 in the series on MCII cells was over 10 µM.
For the compound `O=C(c1cccc2ccccc12)c1c(-c2ccc(O)cc2)sc2cc(O)ccc12` [Example 2, 6-hydroxyphenyl-2-(p-hydroxyphenyl)-(benzo(B)thien-3-yl) (α-naphyl)methanone], the CC50 in the series on MCII cells is over 10 µM.
As for `O=C(c1ccc2ccccc2c1)c1c(-c2ccc(O)cc2)sc2cc(O)ccc12` [Example 3, 6-hydroxyphenl-2-(p-hydroxyphenyl)-(benzo(B)thien-3-yl) (β-napthyl)methanone], the CC50 with MCII cells is over 10 µM.

Values taken from patent US5532382A, “Benzothiophenes substituted at the 3-carbonyl” (Eli Lilly and Company, priority 1995, dated 1996).
